Common to all, as to assay type: cell-based
Experiment [1] concerns SW48 cells (wt). As to the kind of experiment: Cell viability assay (CellTiter-Glo), SW48 cells. The settings on record: Homo sapiens, 72 h; SW48 cells, 3 days incubation, CellTiter-Glo luminescence; read-out: Inhibition of Cancerous Cells IC50 SW48 (wt). The method, then:
(§1) H358, H23, SW48, and AsPC-1 cells were cultured in RPMI 1640 media supplemented with 10% fetal bovine serum, streptomycin, and penicillin. Lovo and SW480 cells were cultured in DMEM media supplemented with 10% fetal bovine serum, streptomycin, and penicillin. The cell lines were plated in their respective medium supplemented with 2.5% fetal bovine serum, streptomycin, and penicillin. All cell lines were plated in white walled 96-well plates at 2,000 cells/well or 384-well plates at 500 cells/well, except Lovo, which were plated at 4,000 or 1,000 cells/well, respectively. The cells were incubated in DMSO (control) or a compound for 3 days at 37° C. under 5% CO2. A CELLTITER-GLO® reagent (100 μL) was then added to each well. After a 10 min incubation with shaking, luminescence was measured using an ENVISION® multimode plate reader.
(In general: Cellular ATP, detected with luciferase, serves as a proxy for viable cell number.)

Experiment [2] relates to Lovo cells (G13D). As to the kind of experiment: Cell viability assay (CellTiter-Glo), Lovo cells. The settings on record: Homo sapiens, 72 h; Lovo cells, 3 days incubation, CellTiter-Glo luminescence; read-out: Inhibition of Cancerous Cells IC50 Lovo (G13D). The method, then: as §1
Experiment [3] concerns H358 cells (G12C). Briefly: Cell viability assay (CellTiter-Glo), H358 cells. The settings on record: Homo sapiens, NCI-H358, 72 h; H358 cells, 3 days incubation, CellTiter-Glo luminescence; read-out: Inhibition of Cancerous Cells IC50 H358 (G12C). The method, then: as §1
For experiment [4], the system named is SW480 cells (G12V). As to the kind of experiment: Cell viability assay (CellTiter-Glo), SW480 cells. The settings on record: Homo sapiens, 72 h; SW480 cells, 3 days incubation, CellTiter-Glo luminescence; read-out: Inhibition of Cancerous Cells IC50 SW480 (G12V). The method, then:
as §1

Data on 15 compounds can be found in patent US20240025863A1, “SOS1 PROTEIN DEGRADERS, PHARMACEUTICAL COMPOSITIONS THEREOF, AND THEIR THERAPEUTIC APPLICATIONS” (BioTheryX, Inc., priority 2020, published 2024).

One may read the IC50 as the concentration needed to halve the response being measured.

On to `COc1cc2c(N[C@H](C)c3cccc(Br)c3)nc(C)nc2cc1OCCCCCCCCC(=O)NCc1cccc2c1CN(C1CCC(=O)NC1=O)C2=O` (stereo partly drawn) [Compound A6, 9-((4-(((R)-1-(3-bromophenyl)ethyl)amino)-6-methoxy-2-methylquinazolin-7-yl)oxy)-N-((2-(2,6-dioxopiperidin-3-yl)-1-oxoisoindolin-4-yl)methyl)nonanamide], for which the IC50 in experiment [1] was more than 10000 nM; in experiment [2] it was 4900 nM; in experiment [3] it was 9900 nM; in experiment [4], 8300 nM.

With `COc1cc2c(N[C@H](C)c3cccc(Br)c3)nc(C)nc2cc1OCCCCCCCC(=O)NCc1cccc2c1CN(C1CCC(=O)NC1=O)C2=O` (stereo partly drawn) [Compound A7, 8-((4-(((R)-1-(3-Bromophenyl)ethyl)amino)-6-methoxy-2-methylquinazolin-7-yl)oxy)-N-((2-(2,6-dioxopiperidin-3-yl)-1-oxoisoindolin-4-yl)methyl)octanamide], the IC50 stood at 5000 nM in experiment [1], 3500 nM in experiment [2], 5400 nM in experiment [3] and 6400 nM in experiment [4].

Turning to `COc1cc2c(N[C@H](C)c3cccc(Br)c3)nc(C)nc2cc1OCCCCCCCC(=O)NCc1ccc2c(c1)CN(C1CCC(=O)NC1=O)C2=O` (stereo partly drawn) [Compound A8, 8-((4-(((R)-1-(3-Bromophenyl)ethyl)amino)-6-methoxy-2-methylquinazolin-7-yl)oxy)-N-((2-(2,6-dioxopiperidin-3-yl)-1-oxoisoindolin-5-yl)methyl)octanamide], the IC50 in experiment [1] is 400 nM; in experiment [2], 970 nM; in experiment [3], 1600 nM; in experiment [4] it was 2100 nM.

As to `COc1cc2c(N[C@H](C)c3cccc(Br)c3)nc(C)nc2cc1OCCCCCCCCC(=O)NCc1ccc2c(c1)CN(C1CCC(=O)NC1=O)C2=O` (stereo partly drawn) [Compound A9, 9-((4-(((R)-1-(3-Bromophenyl)ethyl)amino)-6-methoxy-2-methylquinazolin-7-yl)oxy)-N-((2-(2,6-dioxopiperidin-3-yl)-1-oxoisoindolin-5-yl)methyl)nonanamide], the IC50 in experiment [1] came out at 22 nM; in experiment [2] it was 47 nM; in experiment [3] it was 820 nM; in experiment [4], 1200 nM.

Turning to `COc1cc2c(N[C@H](C)c3cccc(Br)c3)nc(C)nc2cc1OCCCCCN1CCC(c2cc(F)cc3c2CN(C2CCC(=O)NC2=O)C3=O)CC1` (stereo partly drawn) [Compound A11, 3-(4-(1-(5-((4-(((R)-1-(3-Bromophenyl)ethyl)amino)-6-methoxy-2-methyl-quinazolin-7-yl)oxy)pentyl)piperidin-4-yl)-6-fluoro-1-oxoisoindolin-2-yl)piperidine-2,6-dione], the half-maximal inhibitory concentration (IC50) was found to be 510 nM in experiment [1], 410 nM in experiment [2], 1600 nM in experiment [3] and 560 nM in experiment [4].

In the case of `COc1cc2c(N[C@H](C)c3cccc(Br)c3)nc(C)nc2cc1OCCCCN1CCN(C(=O)COc2cc(F)cc3c2CN(C2CCC(=O)NC2=O)C3=O)CC1` (stereo partly drawn) [Compound A13, 3-(4-(2-(4-(4-((4-(((R)-1-(3-Bromophenyl)ethyl)amino)-6-methoxy-2-methyl-quinazolin-7-yl)oxy)butyl)piperazin-1-yl)-2-oxoethoxy)-6-fluoro-1-oxoisoindolin-2-yl)-piperidine-2,6-dione], the IC50 in experiment [1] is 5900 nM; in experiment [2], 9800 nM; in experiment [3], 7400 nM; in experiment [4], 6600 nM.

For the compound `COc1cc2c(N[C@H](C)c3cccc(Br)c3)nc(C)nc2cc1OCCCCCN1CCN(C(=O)COc2cc(F)cc3c2CN(C2CCC(=O)NC2=O)C3=O)CC1` (stereo partly drawn) [Compound A14, 3-(4-(2-(4-(5-((4-(((R)-1-(3-Bromophenyl)ethyl)amino)-6-methoxy-2-methyl-quinazolin-7-yl)oxy)pentyl)piperazin-1-yl)-2-oxoethoxy)-6-fluoro-1-oxoisoindolin-2-yl)-piperidine-2,6-dione], the IC50 in experiment [1] was 3100 nM; in experiment [2], 2800 nM; in experiment [3] it was 4500 nM; in experiment [4], 5000 nM.

On to `CNCc1ccccc1-c1csc([C@@H](C)Nc2nc(C)nc3cc(OCCCCCCCN4CCC(c5cc(F)cc6c5CN(C5CCC(=O)NC5=O)C6=O)CC4)c(OC)cc23)c1` (stereo partly drawn) [Compound A15, 3-(6-Fluoro-4-(1-(7-((6-methoxy-2-methyl-4-(((R)-1-(4-(2-((methylamino)-methyl)phenyl)thiophen-2-yl)ethyl)amino)quinazolin-7-yl)oxy)heptyl)piperidin-4-yl)-1-oxoisoindolin-2-yl)piperidine-2,6-dione], for which the IC50 in experiment [1] was 410 nM; in experiment [2], 260 nM; in experiment [3] it was 550 nM; in experiment [4] it was 370 nM.

In the case of `CNCc1ccccc1-c1csc([C@H](C)Nc2nc(C)nc3cc(OCCCCCCCN4CCC(c5cc(F)cc6c5CN(C5CCC(=O)NC5=O)C6=O)CC4)c(OC)cc23)c1` (stereo partly drawn) [Compound A16, 3-(6-Fluoro-4-(1-(7-((6-methoxy-2-methyl-4-(((S)-1-(4-(2-((methylamino)-methyl)phenyl)thiophen-2-yl)ethyl)amino)quinazolin-7-yl)oxy)heptyl)piperidin-4-yl)-1-oxoisoindolin-2-yl)piperidine-2,6-dione], the IC50 was found to be 340 nM in experiment [1], 230 nM in experiment [2], 430 nM in experiment [3] and 350 nM in experiment [4].

With `COc1cc2c(N[C@H](C)c3cccc(Br)c3)nc(C)nc2cc1C1CCN(CCCCCN2CCC(c3cc(F)cc4c3CN(C3CCC(=O)NC3=O)C4=O)CC2)CC1` (stereo partly drawn) [Compound A17, 3-(4-(1-(5-(4-(4-(((R)-1-(3-Bromophenyl)ethyl)amino)-6-methoxy-2-methyl-quinazolin-7-yl)piperidin-1-yl)pentyl)piperidin-4-yl)-6-fluoro-1-oxoisoindolin-2-yl)piperidine-2,6-dione], the IC50 was found to be 1100 nM in experiment [1], 760 nM in experiment [2], 1400 nM in experiment [3] and 950 nM in experiment [4].

Turning to `COc1cc2c(N[C@H](C)c3cccc(Br)c3)nc(C)nc2c(CCCCCCCN2CCC(c3cc(F)cc4c3CN(C3CCC(=O)NC3=O)C4=O)CC2)c1OC` (stereo partly drawn) [Compound A20, 3-(4-(1-(7-(4-(((R)-1-(3-Bromophenyl)ethyl)amino)-6,7-dimethoxy-2-methyl-quinazolin-8-yl)heptyl)piperidin-4-yl)-6-fluoro-1-oxoisoindolin-2-yl)piperidine-2,6-dione], the IC50 in experiment [1] is 810 nM; in experiment [2] it was 950 nM; in experiment [3], 830 nM; in experiment [4], 1200 nM.

Take `COc1cc2c(N[C@H](C)c3cccc(Br)c3)nc(C)nc2cc1OCCCCCN1CCC(c2cc3c(cc2F)C(=O)N(C2CCC(=O)NC2=O)C3)CC1` (stereo partly drawn) [Compound A21, 3-(5-(1-(5-((4-(((R)-1-(3-Bromophenyl)ethyl)amino)-6-methoxy-2-methyl-quinazolin-7-yl)oxy)pentyl)piperidin-4-yl)-6-fluoro-1-oxoisoindolin-2-yl)piperidine-2,6-dione]: the IC50 in experiment [1] turned out to be 430 nM; in experiment [2], 380 nM; in experiment [3], 1100 nM; in experiment [4] it was 430 nM.

`COc1cc2c(N[C@H](C)c3cccc(Br)c3)nc(C)nc2cc1OCCCCCCCCCN1CCC(c2cc3c(cc2F)C(=O)N(C2CCC(=O)NC2=O)C3)CC1` (stereo partly drawn) [Compound A23, 3-(5-(1-(9-((4-(((R)-1-(3-Bromophenyl)ethyl)amino)-6-methoxy-2-methyl-quinazolin-7-yl)oxy)nonyl)piperidin-4-yl)-6-fluoro-1-oxoisoindolin-2-yl)piperidine-2,6-dione]: the IC50 in experiment [1] was determined as 300 nM; in experiment [2] it was 330 nM; in experiment [3], 760 nM; in experiment [4], 290 nM.

For the compound `COc1cc2c(N[C@H](C)c3cccc(Br)c3)nc(C)nc2cc1OCCCCCCCCCCCN1CCC(c2cc3c(cc2F)C(=O)N(C2CCC(=O)NC2=O)C3)CC1` (stereo partly drawn) [Compound A24, 3-(5-(1-(11-((4-(((R)-1-(3-Bromophenyl)ethyl)amino)-6-methoxy-2-methyl-quinazolin-7-yl)oxy)undecyl)piperidin-4-yl)-6-fluoro-1-oxoisoindolin-2-yl)piperidine-2,6-dione], the IC50 in experiment [1] is 1300 nM; in experiment [2], 400 nM; in experiment [3] it was 1200 nM; in experiment [4], 550 nM.

Consider `CNCc1ccccc1-c1csc([C@@H](C)Nc2nc(C)nc3cc(OCCCCCCCN4CCC(c5cc6c(cc5F)C(=O)N(C5CCC(=O)NC5=O)C6)CC4)c(OC)cc23)c1` (stereo partly drawn) [Compound A25, 3-(6-Fluoro-5-(1-(7-((6-methoxy-2-methyl-4-(((R)-1-(4-(2-((methylamino)-methyl)phenyl)thiophen-2-yl)ethyl)amino)quinazolin-7-yl)oxy)heptyl)piperidin-4-yl)-1-oxoisoindolin-2-yl)piperidine-2,6-dione], for which the IC50 was 420 nM in experiment [1], 290 nM in experiment [2], 510 nM in experiment [3] and 370 nM in experiment [4].
